From patent US12441732B2, “Potassium salt crystal form B of phosphodiesterase type 5 inhibitor, and preparation method and use therefor” (Guangzhou Huazhen Pharmaceutical Co., Ltd, priority 2019, dated 2025)

Key:
[1] = tested on: rats with isoproterenol-induced myocardial hypertrophy; assay: Isoproterenol-induced myocardial hypertrophy in rats; type: in vivo, SD rats; settings: Iso rats, 2 mg·kg^−1·d^−1 gavage, 7 days
Experimental: SD rats were randomly divided into 3 groups, 10 rats/group: a normal control group (CON); an isoproterenol-induced myocardial hypertrophy model group (Iso); an Iso+the potassium salt crystal form B of WYQ treatment group (hereafter referred to as a treatment group).
Isoproterenol was prepared into a 4 mg/ml medicinal solution with double-distilled water, which was ready to be used. The normal control group was injected with normal saline (5 mg/kg) subperitoneally, and the rest of the groups were injected with isoproterenol (5 mg/kg) subperitoneally once a day for 7 consecutive days.
Treatment group: the potassium salt crystal form B of WYQ was prepared into a 0.4 mg/ml medicinal solution with normal saline (ready to use) and administered by gavage at a dose of 2 mg·kg^−1·d^−1; and
the day of injection was the starting date of the experiment, and the administration was started 2 hours after the modeling, once a day for 7 consecutive days.
After 7 days from the starting date of the experiment, the left ventricle was intubated retrogradely through the right common carotid artery, and the hemodynamic indexes of each group of rats were collected on the RM-6240E polygraph, including the left ventricular pressure (LVP) and the rate of ventricular pressure change (dp/dt).
One week after the starting date of the experiment, the animals were anesthetized and hemodynamically tested (RM-6240E polygraph). The animals were sacrificed after pressure measurement. The heart tissues were immediately dissected and rinsed in frozen normal saline to remove blood. The heart was weighed quickly, and the left and right atria are cut along the atrio-ventricular junction with ophthalmic scissors. The left ventricle was separated, and absorbed water with filter paper, weighed, and put into liquid nitrogen for extraction of protein and mRNA to detect changes in the expression of hypertrophy-related factor genes. After 2 hours, the left ventricle tissue was transferred to a refrigerator at −80° C. for freezing and storage. After completing the above operations, the leg skin and muscles of the rats were cut with surgical scissors to fully expose the tibia, and the length of the tibia was measured. The myocardial hypertrophy index of rats was expressed by a heart-tibia length (HW-Tibia).

[2] = tested on: PAH rats; assay: Monocrotaline-induced pulmonary arterial hypertension (PAH) rats: RVSP, RVMI, pulmonary arterioles; type: in vivo, SD rats; settings: for RVMI, RV/(LV+S) / RVSP: 3 weeks after MCT
Excerpt: SD rats were randomly divided into 8 groups, 15 rats/group: a normal control group (Vehicle); a PAH model group (MCT); a PAH+potassium salt crystal form B of WYQ mini-dose group (hereafter referring to as a mini-dose group); a PAH+potassium salt crystal form B of WYQ low-dose group (hereafter referring to as a low-dose group); a PAH+potassium salt crystal form B of WYQ medium-dose group (hereafter referring to as a medium-dose group); a PAH+potassium salt crystal form B of WYQ high-dose group (hereafter referring to as a high-dose group); a PAH+Sildenafil control group (hereafter referring to as a Sildenafil group); a PAH+Tadalafil control group (hereafter referring to as a Tadalafil group).
MCT was fully dissolved with 1M dilute HCl, diluted with double-distilled water, and adjusted to pH=7.2 with 3M NaOH, thereby preparing a MCT solution with a final concentration of 20 mg/ml.
The normal control group was injected subperitoneally with normal saline (50 mg/kg), and the rest of the groups were injected subperitoneally with MCT (50 mg/kg) at one time.
Mini-dose group: the potassium salt crystal form B of WYQ was prepared into a 0.4 mg/ml medicinal solution (ready to use) with normal saline, and administered by gavage at the dose of 2 mg·kg^−1d^−1;
Low-dose group: the potassium salt crystal form B of WYQ was prepared into a 1 mg/ml medicinal solution (ready to use) with normal saline, and administered by gavage at the dose of 5 mg·kg^−1d^−1;
Medium-dose group: the potassium salt crystal form B of WYQ was prepared into a 2 mg/ml medicinal solution (ready to use) with normal saline, and administered by gavage at the dose of 10 mg·kg^−1d^−1;
High-dose group: the potassium salt crystal form B of WYQ was prepared into a 4 mg/ml medicinal solution (ready to use) with normal saline, and administered by gavage at the dose of 20 mg·kg^−1d^−1;
Sildenafil group: Sildenafil was prepared into a 5 mg/ml medicinal solution (ready to use) with 0.5% sodium carboxymethyl cellulose, and administered by gavage at the dose of 25 mg·kg^−1d^−1;
Tadalafil group: Tadalafil was prepared into a 2 mg/ml medicinal solution (ready to use) with 0.5% sodium carboxymethyl cellulose, and administered by gavage at the dose of 10 mg·kg^−1d^−1.
The day of injection was the starting date of the experiment, and the administration was started after 7 days of modeling, once a day for 14 consecutive days.
After 3 weeks from the starting date of the experiment, RVSP data were collected on RM-6240E polygraph for each group of rats.
After 3 weeks from the starting date of the experiment, the animals were anesthetized, hemodynamically tested (RM-6240E polygraph), and sacrificed after manometry. The cardiopulmonary tissues were immediately dissected, and the right and left atria and great vessels were cut off along the atrioventricular junction with ophthalmic scissors to separate the right ventricle (RV) and left ventricular wall plus septum (LV+S), which was absorbed water with filter paper and weighed respectively, and RV/(LV+S), i.e., RVMI was calculated.
After 3 weeks from the starting date of the experiment, rats were heparinized with heparin (50 IU/100 g, intraperitoneal injection) for 5 min. The animals were anesthetized by injection of 20% urethane solution (0.5 ml/100 g), and the blood pressure indexes were detected and recorded.
The heart was dissected, the right ventricular wall was separated, and the left ventricle and the septum were separated, which were absorbed water with filter paper and weighed respectively to calculate the right ventricular hypertrophy index.
The lungs were dissected, wherein the right lung was ligated, and the left lung lobe was perfused with a fixative (4% paraformaldehyde) and then fixed in the fixative, dehydrated by ethanol gradient, allowed to become transparent by using xylene, immersed in wax, embedded in paraffin, sectioned (4 μm), stained with hematoxylin-eosin (HE), sealed with neutral gum and then observed under a microscope. […]

[3] = high-dose 20 mg·kg^−1d^−1 gavage once a day for 14 days
[4] = low-, medium- and high-dose groups (5, 10, 20 mg·kg^−1d^−1)
[5] = low-dose 5 mg·kg^−1d^−1 gavage once a day for 14 days
[6] = medium-dose 10 mg·kg^−1d^−1 gavage once a day for 14 days
[7] = mini-dose 2 mg·kg^−1d^−1 gavage once a day for 14 days

## CCCCOC(=O)[N-]S(=O)(=O)c1cccc(-c2nc3c(CCC)nn(C)c3c(=O)[nH]2)c1.[K+] [potassium salt crystal form B]
[1]
  BNP gene expression in heart tissue vs model group: significantly decreased
  HW-Tibia ratio vs model group: significantly reduced
  Max dp/dt vs model group: significantly higher
  Min dp/dt vs model group: significantly higher
  expression of ANP gene in left heart tissue vs model group: significantly decreased
  expression of ANP protein in left heart tissue vs model group: significantly decreased
  left ventricle-tibia length ratio vs model group: significantly reduced
  left ventricular pressure (LVP) vs model group: significantly higher
[2]; [3]
  RVMI, RV/(LV+S): 34.6±19%
  RVSP: 29.8±1.6 mmHg
[2]; [4]
  WT % of pulmonary arterioles vs PAH model group: decreased and improved significantly
  tunica media thickness of pulmonary arterioles vs PAH model group: decreased and improved significantly
[2]; [5]
  RVMI, RV/(LV+S): 40.6±2.7%
  RVSP: 47.6±1.9 mmHg
[2]; [6]
  RVMI, RV/(LV+S): 38.7±2.1%
  RVSP: 40.7±1.5 mmHg
[2]; [7]
  RVMI, RV/(LV+S): 42.8±2.1%
  RVSP: 56.2±0.5 mmHg
